This note sets out measurements from doi:10.1101/2024.04.22.590490v1 (biorxiv, 2024).

SMILES strings stand for the structures.

One assay addresses GSK-3α (Homo sapiens, UniProt P49840). In words: ADP-Glo luminescent kinase assay. Type of assay: biochemical. A general note: ADP-Glo turns the ADP formed in a reaction into a luminescent signal.
The next assay has as its target GSK-3β (Homo sapiens, UniProt P49841). Description: ADP-Glo luminescent kinase assay. Type of assay: biochemical.

Sequence of GSK-3α (P49840 2-483): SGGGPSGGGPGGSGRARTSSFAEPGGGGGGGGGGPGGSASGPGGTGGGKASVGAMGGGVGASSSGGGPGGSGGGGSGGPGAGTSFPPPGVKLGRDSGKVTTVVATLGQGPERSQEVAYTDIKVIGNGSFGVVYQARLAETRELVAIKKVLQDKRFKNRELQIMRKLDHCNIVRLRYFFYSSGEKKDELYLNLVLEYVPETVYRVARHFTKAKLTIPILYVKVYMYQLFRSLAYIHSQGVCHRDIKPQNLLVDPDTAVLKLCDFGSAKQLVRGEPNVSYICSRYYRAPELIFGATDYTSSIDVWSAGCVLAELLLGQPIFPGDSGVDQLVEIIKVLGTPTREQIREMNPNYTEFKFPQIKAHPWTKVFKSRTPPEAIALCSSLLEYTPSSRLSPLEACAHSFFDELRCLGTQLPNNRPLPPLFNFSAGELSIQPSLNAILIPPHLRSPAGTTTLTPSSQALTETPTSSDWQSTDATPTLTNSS
Sequence of GSK-3β (P49841 whole entry): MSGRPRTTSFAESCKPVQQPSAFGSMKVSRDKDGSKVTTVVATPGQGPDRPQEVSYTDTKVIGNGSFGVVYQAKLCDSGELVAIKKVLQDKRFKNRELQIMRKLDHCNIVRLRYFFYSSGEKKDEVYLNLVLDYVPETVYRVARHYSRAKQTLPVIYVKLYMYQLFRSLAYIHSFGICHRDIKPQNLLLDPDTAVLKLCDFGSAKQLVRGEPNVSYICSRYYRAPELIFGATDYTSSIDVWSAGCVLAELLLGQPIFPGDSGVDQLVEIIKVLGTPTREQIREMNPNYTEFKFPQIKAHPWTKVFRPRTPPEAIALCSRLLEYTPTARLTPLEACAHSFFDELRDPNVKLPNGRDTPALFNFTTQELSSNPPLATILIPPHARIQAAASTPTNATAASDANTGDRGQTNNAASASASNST

For the molecule `CC(C)=CCc1cc2c(cc1O)oc(=O)c1c3ccc(O)cc3oc21` [Psoralidin], the values for the IC50 against GSK-3α and against GSK-3β were 2.27 µM and 4.24 µM, respectively.
As to `O=C(/C=C/c1ccc(O)c(O)c1)O[C@H](Cc1ccc(O)c(O)c1)C(=O)O` [Rosmarinic acid], the IC50 (in general, the concentration that gives 50% inhibition) was 5.14 µM against GSK-3α and 2.25 µM against GSK-3β.
